# Structures can show the parent of a compound that is named as a salt.
row,melting point [°C],SMILES
1,220 to 221,"CCOCc1nc2c(N)nc3cc(/C=C/Sc4ccccc4)ccc3c2n1CCCOC(C)C (as salt: hydrobromid) [Example 1, 2-Ethoxymethyl-1-(3-isopropoxypropyl)-7-[(E)-2-(phenylthio)ethenyl]-1H-imidazo[4,5-c]quinolin-4-amine]"
2,188.5 to 190,"CCOCc1nc2c(N)nc3cc(/C=C/S(=O)(=O)c4ccccc4)ccc3c2n1CCCOC(C)C [Example 2, 2-Ethoxymethyl-1-(3-isopropoxypropyl)-7-[(E)-2-(phenylsulfonyl)ethenyl]-1H-imidazo[4,5-c]quinolin-4-amine]"
3,214 to 215,"CCOCc1nc2c(N)nc3cc(NC(=O)C(C)C)ccc3c2n1CCCOC(C)C [Example 3, N-[4-Amino-2-ethoxymethyl-1-(3-isopropoxypropyl)-1H-imidazo[4,5-c]quinolin-7-yl]-2-methylpropanamide]"
4,124 to 127,"CCOCc1nc2c(N)nc3cc(NS(=O)(=O)CC)ccc3c2n1CC(C)(C)O [Example 4, N-[4-Amino-2-ethoxymethyl-1-(2-hydroxy-2-methylpropyl)-1H-imidazo[4,5-c]quinolin-7-yl]ethanesulfonamide]"
5,122 to 124,"CCOCc1nc2c(N)nc3cc(CCCCNC(C)=O)ccc3c2n1CCCOC(C)C [Example 5, N-{4-[4-Amino-2-ethoxymethyl-1-(3-isopropxypropyl)-1H-imidazo[4,5-c]quinolin-7-yl]butyl}acetamide]"
6,134.5 to 135.5,"CCCNC(=O)NCCCCc1ccc2c(c1)nc(N)c1nc(COCC)n(CCCOC(C)C)c12 [Example 6, N-{4-[4-Amino-2-ethoxymethyl-1-(3-isopropxypropyl)-1H-imidazo[4,5-c]quinolin-7-yl]butyl}-N′-propylurea]"
7,166.5 to 167.5,"CCOCc1nc2c(N)nc3cc(S(C)(=O)=O)ccc3c2n1CCCOC [Example 7, 2-Ethoxymethyl-1-(3-methoxypropyl)-7-methylsulfonyl-1H-imidazo[4,5-c]quinolin-4-amine]"
8,193 to 194,"CCCCc1nc2c(N)nc3cc(/C=C/C(=O)OC)ccc3c2n1CC(C)C [Example 8, Methyl(2E)-3-[4-amino-2-butyl-1-(2-methylpropyl)-1H-imidazo[4,5-c]quinolin-7-yl]prop-2-enoate]"
9,162 to 163,"CCOCc1nc2c(N)nc3cc(/C=C/C(=O)OC)ccc3c2n1CCCCN1CCCS1(=O)=O [Example 9, Methyl(2E)-3-[4-amino-1-[4-(1,1-dioxidoisothiazolidin-2-yl)butyl]-2-(ethoxymethyl)-1H-imidazo[4,5-c]quinolin-7-yl]prop-2-enoate]"
10,174 to 175,"CC(C)Cn1cnc2c(N)nc3ccc(CCCN4CCCC4=O)cc3c21 [Example 10, 1-{3-[4-Amino-1-(2-methylpropyl)-1H-imidazo[4,5-c]quinolin-8-yl]propyl}pyrrolidin-2-one]"
11,118 to 119,"CCOCc1nc2c(N)nc3cc(CCC(=O)N4CCOCC4)ccc3c2n1CC(C)(C)O [Example 14, 1-[4-Amino-2-(ethoxymethyl)-7-(3-morpholin-4-yl-3-oxopropyl)-1H-imidazo[4,5-c]quinolin-1-yl]-2-methylpropan-2-ol]"
12,> 250,"COC(=O)/C=C/c1ccc2c(c1)nc(N)c1ncn(CC(C)(C)O)c12 [Example 15, Methyl(2E)-3-[4-amino-1-(2-hydroxy-2-methylpropyl)-1H-imidazo[4,5-c]quinolin-7-yl]prop-2-enoate]"
13,201 to 205,"COC(=O)CCc1ccc2c(c1)nc(N)c1ncn(CC(C)(C)O)c12 [Example 16, Methyl 3-[4-amino-1-(2-hydroxy-2-methylpropyl)-1H-imidazo[4,5-c]quinolin-7-yl]propanoate]"
14,238 to 240,"CCc1nc2c(N)nc3cc(/C=C/C(=O)OC)ccc3c2n1CC(C)(C)O [Example 17, Methyl(2E)-3-[4-amino-2-ethyl-1-(2-hydroxy-2-methylpropyl)-1H-imidazo[4,5-c]quinolin-7-yl]prop-2-enoate]"
15,214 to 216,"CC(C)Cn1cnc2c(N)nc3ccc(CCO)cc3c21 [Example 96, 2-(4-Amino-1-isobutyl-1H-imidazo[4,5-c]quinolin-8-yl)ethanol]"
16,217 to 218,"CC(C)(O)Cn1cnc2c(N)nc3cc(CCC(=O)N4CCOCC4)ccc3c21 [Example 97, 3-[4-Amino-1-(2-hydroxy-2-methylpropyl)-1H-imidazo[4,5-c]quinolin-7-yl]-1-(morpholin-4-yl)propan-1-one]"
17,237 to 239,"CCc1nc2c(N)nc3cc(CCC(=O)N4CCOCC4)ccc3c2n1CC(C)(C)O [Example 98, 3-[4-Amino-2-ethyl-1-(2-hydroxy-2-methylpropyl)-1H-imidazo[4,5-c]quinolin-7-yl]-1-(morpholin-4-yl)propan-1-one]"
18,269 to 271,CC(C)(O)Cn1cnc2c(N)nc3cc(CCS(C)(=O)=O)ccc3c21 [Example 99]

row,melting point [°C],SMILES
1,234 to 237,"CCc1nc2c(N)nc3cc(CCC(=O)N(C)C)ccc3c2n1CC(C)(C)O [Example 100, 3-[4-Amino-2-ethyl-1-(2-hydroxy-2-methylpropyl)-1H-imidazo[4,5-c]quinolin-7-yl]-N,N-dimethylpropanamide]"
2,168 to 170,"COCCc1nc2c(N)nc3ccc(CCC(=O)N4CCOCC4)cc3c2n1CCCN1CCCC1=O [Example 101, 1-{3-[4-Amino-2-(2-methoxyethyl)-8-(3-morpholin-4-yl-3-oxo-propyl)-1H-imidazo[4,5-c]quinolin-1-yl]propyl}pyrrolidin-2-one]"
3,184 to 186,"COCCc1nc2c(N)nc3ccc(CCC(=O)N(C)C)cc3c2n1CCCN1CCCC1=O [Example 102, 3-{4-Amino-2-(2-methoxyethyl)-1-[3-(2-oxo-pyrrolidin-1-yl)propyl]-1H-imidazo[4,5-c]quinolin-8-yl}-N,N-dimethylpropanamide]"
4,210 to 212,"CCc1nc2c(N)nc3cc(CCC(=O)N4CCSC4)ccc3c2n1CC(C)(C)O [Example 103, 1-{4-Amino-2-ethyl-7-[3-oxo-3-(1,3-thiazolidin-3-yl)propyl]-1H-imidazo[4,5-c]quinolin-1-yl}-2-methylpropan-2-ol]"
5,210 to 212,"COCc1nc2c(N)nc3cc(CCS(C)(=O)=O)ccc3c2n1CC(C)(C)O [Example 104, 1-{4-Amino-2-(methoxymethyl)-7-[2-(methylsulfonyl)ethyl]-1H-imidazo[4,5-c]quinolin-1-yl}-2-methylpropan-2-ol]"
6,221 to 223,"CC(C)(O)Cn1c(CO)nc2c(N)nc3cc(CCS(C)(=O)=O)ccc3c21 [Example 105, 1-{4-Amino-2-(hydroxymethyl)-7-[2-(methylsulfonyl)ethyl]-1H-imidazo[4,5-c]quinolin-1-yl}-2-methylpropan-2-ol]"
7,215 to 217,"COCc1nc2c(N)nc3cc(CCC(=O)N4CCOCC4)ccc3c2n1CC(C)(C)O [Example 106, 1-[4-Amino-2-(methoxymethyl)-7-(3-morpholin-4-yl-3-oxopropyl)-IH-imidazo[4,5-c]quinolin-1-yl]-2-methylpropan-2-ol]"
8,190 to 192,"COCc1nc2c(N)nc3cc(CCC(=O)N4CCS(=O)(=O)CC4)ccc3c2n1CC(C)(C)O [Example 107, 1-[4-Amino-7-[3-(1,1-dioxidothiomorpholin-4-yl)-3-oxopropyl]-2-(methoxymethyl)-1H-imidazo[4,5-c]quinolin-1-yl]-2-methylpropan-2-ol]"
9,142 to 145,"COCc1nc2c(N)nc3cc(CCC(=O)N(C)C)ccc3c2n1CC(C)(C)O [Example 108, 3-[4-Amino-1-(2-hydroxy-2-methylpropyl)-2-(methoxymethyl)-1H-imidazo[4,5-c]quinolin-7-yl]-N,N-dimethylpropanamide]"
10,205 to 207,"COCc1nc2c(N)nc3cc(CCCNS(C)(=O)=O)ccc3c2n1CC(C)(C)O [Example 109, N-{3-[4-Amino-1-(2-hydroxy-2-methylpropyl)-2-(methoxymethyl)-1H-imidazo[4,5-c]quinolin-7-yl]propyl}methanesulfonamide]"
11,191 to 193,"COCc1nc2c(N)nc3cc(CCC#N)ccc3c2n1CC(C)(C)O [Example 110, 3-[4-Amino-1-(2-hydroxy-2-methylpropyl)-2-(methoxymethyl)-1H-imidazo[4,5-c]quinolin-7-yl]propanenitrile]"
12,228 to 230,"CN(C)C(=O)CCc1ccc2c(c1)nc(N)c1nc(CO)n(CC(C)(C)O)c12 [Example 111, 3-[4-Amino-2-(hydroxymethyl)-1-(2-hydroxy-2-methylpropyl)-1H-imidazo[4,5-c]quinolin-7-yl]-N,N-dimethylpropanamide]"
13,223 to 225,"CC(C)(O)Cn1c(CO)nc2c(N)nc3cc(CCC(=O)N4CCOCC4)ccc3c21 [Example 112, 1-[4-Amino-2-(hydroxymethyl)-7-(3-morpholin-4-yl-3-oxopropyl)-1H-imidazo[4,5-c]quinolin-1-yl]-2-methylpropan-2-ol]"
14,228 to 230,"COCc1nc2c(N)nc3cc(CCC(N)=O)ccc3c2n1CC(C)(C)O [Example 113, 3-[4-Amino-1-(2-hydroxy-2-methylpropyl)-2-(methoxymethyl)-1H-imidazo[4,5-c]quinolin-7-yl]propanamide]"
15,202 to 205,"CC(C)(O)Cn1c(CO)nc2c(N)nc3cc(CCCNS(C)(=O)=O)ccc3c21 [Example 116, N-{3-[4-Amino-2-(hydroxymethyl)-1-(2-hydroxy-2-methylpropyl)-1H-imidazo[4,5-c]quinolin-7-yl]propyl}methanesulfonamide]"
16,259 to 261,"CCOCc1nc2c(N)nc3ccc(NC(=O)C(C)C)cc3c2n1CC(C)(C)O [Example 117, N-[4-Amino-2-(ethoxymethyl)-1-(2-hydroxy-2-methylpropyl)-1H-imidazo[4,5-c]quinolin-8-yl]-2-methylpropanamide]"
17,149 to 152,"CCc1nc2c(N)nc3cc(CCNS(C)(=O)=O)ccc3c2n1CC(C)(C)O [Example 118, N-{2-[4-Amino-2-ethyl-1-(2-hydroxy-2-methylpropyl)-1H-imidazo[4,5-c]quinolin-7-yl]ethyl}methanesulfonamide]"
18,246.5 to 249,CCc1nc2c(N)nc3cc(CCS(C)(=O)=O)ccc3c2n1CC1CCOCC1 [Example 120]
